In patent US4310660A, “Lincomycin compounds” (The Upjohn Company, priority 1980, dated 1982):
Values after ≈ are worked out from the molar mass of the structure shown. Like-named read-outs stand apart in the source and are kept apart here.

Tests used:
Type in all cases: cell-based
Klebsiella pneumoniae = assay: MIC vs. aerobic bacteria, microplate broth-dilution (BHI); details: K. pneumoniae UC 58
Procedure: (§1) The Minimal Inhibitory Concentration (MIC's) of both compounds Vs. aerobic bacteria is determined using a standard microplate broth-dilution method. Brain Heart Infusion (BHI-Difco) broth medium is used, and the plates are incubated at 37° C. for 20 hrs.

Proteus vulgaris = assay: as above; details: P. vulgaris UC 93
Procedure: as §1

Pseudomonas aeruginosa = assay: as above; details: UC95, 20 h, Ps. aeruginosa UC 95, read-out: MIC
Procedure: as §1

Escherichia coli = assay: as above; details: UC45, 20 h, E. coli UC 45, read-out: MIC
Procedure: as §1

[1] = system: Salmonella schottmuelleri; assay: as above; details: S. schottmuelleri UC 126
Procedure: as §1

Streptococcus faecalis = assay: as above; details: St. faecalis UC 694
Procedure: as §1

Diplococcus pneumoniae = assay: as above; details: D. pneumoniae UC 41
Procedure: as §1

Staphylococcus aureus = assay: as above
S. hemolyticus = assay: MIC, test procedure as given supra; details: S. hemolyticus UC 152
Procedure: as §1
The Minimal Inhibitory Concentration (MIC's) of a representative number of the compounds prepared in Examples 2-8 follows. The test procedure is as given supra.

[2] = Klebsiella pneumoniae, UC58, 20 h, read-out: MIC
[3] = Proteus vulgaris, UC93, 20 h, read-out: MIC
[4] = Enterococcus faecalis, UC694, 20 h, read-out: MIC
[5] = Streptococcus pneumoniae, UC41, 20 h, read-out: MIC
[6] = Staphylococcus aureus, UC76, 20 h, S. aureus UC 76, read-out: MIC
[7] = Staphylococcus aureus, UC570, 20 h, S. aureus UC 570, read-out: MIC
[8] = Staphylococcus aureus, UC746, 20 h, S. aureus UC 746, read-out: MIC

Compound	MIC (Klebsiella pneumoniae; [2]) [mg/L]	MIC (Proteus vulgaris; [3]) [mg/L]	MIC (Pseudomonas aeruginosa) [mg/L]	MIC (Escherichia coli) [mg/L]	MIC ([1]; Salmonella, UC126, 20 h) [mg/L]	MIC (Streptococcus faecalis; [4]) [mg/L]	MIC (Diplococcus pneumoniae; [5]) [mg/L]	MIC (Staphylococcus aureus; [6]) [mg/L]	MIC (Staphylococcus aureus; [7]) [mg/L]	MIC (Staphylococcus aureus; [8]) [mg/L]	MIC (S. hemolyticus; UC152, 20 h, read-out: MIC) [mg/L]	further results
CS[C@H]1O[C@H]([C@H](NC(=O)c2ccccn2)[C@@H](C)O)[C@H](O)[C@H](O)[C@H]1O [U-46,136]	> 1000	> 1000	> 1000	> 1000	> 1000	> 1000	> 1000	> 1000	> 1000	> 1000	1000 (≈ 2790 µM)	
CS[C@H]1O[C@H]([C@H](NC(=O)c2ccncc2)[C@H](C)Cl)[C@H](O)[C@H](O)[C@H]1O [U-46,137]	1000 (≈ 2650 µM)	> 1000	1000 (≈ 2650 µM)	1000 (≈ 2650 µM)	1000 (≈ 2650 µM)	> 1000	500 (≈ 1330 µM)	> 1000	> 1000	> 1000	1000 (≈ 2650 µM)	
CS[C@H]1O[C@H]([C@H](NC(=O)C2CCCCN2)[C@H](C)Cl)[C@H](O)[C@H](O)[C@H]1O (stereo partly drawn) [U-46,337]	> 1000	> 1000	> 1000	> 1000	> 1000							MIC (Streptococcus faecalis; listed as 46,337): > 1000 mg/L; MIC (Diplococcus pneumoniae; listed as 46,337): 250 mg/L (≈ 653 µM); MIC (Staphylococcus aureus; S. aureus UC 76, listed as 46,337): 1000 mg/L (≈ 2610 µM); MIC (Staphylococcus aureus; S. aureus UC 570, listed as 46,337): 1000 mg/L (≈ 2610 µM); MIC (Staphylococcus aureus; S. aureus UC 746, listed as 46,337): 1000 mg/L (≈ 2610 µM); MIC (S. hemolyticus; listed as 46,337): 250 mg/L (≈ 653 µM)
CS[C@H]1O[C@H]([C@H](NC(=O)C2CCCCN2)[C@H](C)Cl)[C@H](O)[C@H](O)[C@H]1O (stereo partly drawn) [U-46,465]												MIC (Klebsiella pneumoniae): 500 mg/L (≈ 1310 µM); MIC (Proteus vulgaris): 1000 mg/L (≈ 2610 µM); MIC [1]: 1000 mg/L (≈ 2610 µM); MIC (Streptococcus faecalis; listed as 46,465): 3.9 mg/L (≈ 10.2 µM); MIC (Diplococcus pneumoniae; listed as 46,465): < 1.0 mg/L; MIC (Staphylococcus aureus; S. aureus UC 76, listed as 46,465): 3.9 mg/L (≈ 10.2 µM); MIC (Staphylococcus aureus; S. aureus UC 570, listed as 46,465): 31.2 mg/L (≈ 81.5 µM); MIC (Staphylococcus aureus; S. aureus UC 746, listed as 46,465): 3.9 mg/L (≈ 10.2 µM); MIC (S. hemolyticus; listed as 46,465): < 1.0 mg/L
CS[C@H]1O[C@H]([C@H](NC(=O)C2CCCCN2C)[C@H](C)Cl)[C@H](O)[C@H](O)[C@H]1O (stereo partly drawn) [U-46,699]	250 (≈ 630 µM)	1000 (≈ 2520 µM)	> 1000	1000 (≈ 2520 µM)	> 1000	15.6 (≈ 39.3 µM)	< 1	3.9 (≈ 9.83 µM)	7.8 (≈ 19.7 µM)	7.8 (≈ 19.7 µM)	3.9 (≈ 9.83 µM)	
CS[C@H]1O[C@H]([C@H](NC(=O)C2CCCCN2)[C@@H](C)O)[C@H](O)[C@H](O)[C@H]1O (stereo partly drawn) [U-60,492]												MIC (Streptococcus faecalis): > 1000 mg/L; MIC (Diplococcus pneumoniae): 31.2 mg/L (≈ 85.6 µM); MIC (Staphylococcus aureus; S. aureus UC 570): > 1000 mg/L; MIC (Staphylococcus aureus; S. aureus UC 746): 250 mg/L (≈ 686 µM); MIC (S. hemolyticus): 15.6 mg/L (≈ 42.8 µM)
CS[C@H]1O[C@H]([C@H](NC(=O)C2CCCCN2)[C@@H](C)O)[C@H](O)[C@H](O)[C@H]1O (stereo partly drawn) [U-60,493]	> 1000	> 1000	> 1000	> 1000	> 1000	1000 (≈ 2740 µM)	15.6 (≈ 42.8 µM)	1000 (≈ 2740 µM)	1000 (≈ 2740 µM)	250 (≈ 686 µM)	7.8 (≈ 21.4 µM)	
